Results taken from ChEMBL document CHEMBL5620360, “Design, synthesis and biological evaluation of 4-(4-aminophenoxy)picolinamide derivatives as potential antitumor agents” (Eur J Med Chem, 2023).

Legend:
HeLa = test: Antiproliferative activity against human HeLa cells assessed as reduction in cell viability incubated for 72 hrs by MTT assay; type: functional, cell-based
A549 [1] = test: cells; settings: Homo sapiens, A549, 72 h
MCF7 [2] = test: cells; settings: Homo sapiens, MCF7, 72 h
A549 [3] = test system: A549
MCF7 [4] = test system: MCF7
A549 [5] = test: Induction of apoptosis in human A549 cells assessed as viable cells at 5 uM measured after 24 hrs by AnnexinV-FITC/PI staining based flow cytometry (reference value: 93.25%); type: functional; settings: read-out: Activity
A549 [6] = test: Induction of apoptosis in human A549 cells assessed as early apoptotic cells at 5 uM measured after 24 hrs by AnnexinV-FITC/PI staining based flow cytometry (reference value: 1.26%); type: functional
A549 [7] = test: Induction of apoptosis in human A549 cells assessed as late apoptotic cells at 5 uM measured after 24 hrs by AnnexinV-FITC/PI staining based flow cytometry (reference value: 1.47%); type: functional
A549 [8] = test: Induction of apoptosis in human A549 cells assessed as necrotic cells at 5 uM measured after 24 hrs by AnnexinV-FITC/PI staining based flow cytometry (reference value: 4.01%); type: functional
A549 [9] = test: Induction of cell cycle arrest in human A549 cells assessed as accumulation of cells at G1 phase at 5 uM incubated for 24 hrs by propidium iodide staining based flow cytometry (reference value: 54.46%); type: functional
A549 [10] = test: Induction of cell cycle arrest in human A549 cells assessed as accumulation of cells at G2 phase at 5 uM incubated for 24 hrs by propidium iodide staining based flow cytometry (reference value: 7.36%); type: functional
A549 [11] = test: Induction of cell cycle arrest in human A549 cells assessed as accumulation of cells at S phase at 5 uM incubated for 24 hrs by propidium iodide staining based flow cytometry (reference value: 38.18%); type: functional
[12] = Homo sapiens, HeLa, 72 h, read-out: IC50

Row | Structure (SMILES) | IC50 (HeLa; [12]) [µM] | IC50 (A549 [1]) [µM] | IC50 (MCF7 [2]) [µM] | further results
1 | O=C(Nc1ccc(Oc2ccnc(C(=O)N3CCCC3)c2)c(F)c1)c1cn(-c2ccc(Cl)cc2)c2ncccc2c1=O | 75.4 | 79.3 | 82.1 | 
2 | CCCNC(=O)c1cc(Oc2ccc(NC(=O)c3cn(-c4ccc(Br)cc4F)c4ncccc4c3=O)cc2)ccn1 | 80.5 |  |  | IC50 (A549 [3]): Not Active; IC50 (MCF7 [4]): Not Active
3 | CCCNC(=O)c1cc(Oc2ccc(NC(=O)c3cn(-c4ccc(F)c(Cl)c4)c4ncccc4c3=O)cc2F)ccn1 | 43.6 | 34.8 | 39 | 
4 | O=C(Nc1ccc(Oc2ccnc(C(=O)N3CCCC3)c2)c(F)c1)c1cn(-c2ccc(Br)cc2F)c2ncccc2c1=O | 50.8 |  |  | IC50 (A549 [3]): Not Active; IC50 (MCF7 [4]): Not Active
5 | O=C(Nc1ccc(Oc2ccnc(C(=O)N3CCCC3)c2)cc1)c1cn(-c2ccc(Cl)cc2)c2ncccc2c1=O | 67 | 57.1 | 69.8 | 
6 | O=C(Nc1ccc(Oc2ccnc(C(=O)N3CCCC3)c2)cc1)c1cn(-c2ccc(Br)cc2F)c2ncccc2c1=O |  | 56.8 | 78.5 | IC50 (HeLa; hela): Not Active
7 | O=C(Nc1ccc(Oc2ccnc(C(=O)N3CCCC3)c2)c(F)c1)c1cn(-c2ccccc2)c2ncccc2c1=O | 60.5 |  | 69.4 | IC50 (A549 [3]): Not Active
8 | COc1ccc(-n2cc(C(=O)Nc3ccc(Oc4ccnc(C(=O)NCCCN5CCOCC5)c4)cc3)c(=O)c3cccnc32)cc1 | 28.3 | 16.2 | 29.1 | 
9 | O=C(NCCCN1CCOCC1)c1cc(Oc2ccc(NC(=O)c3cn(-c4ccc(Cl)cc4)c4ncccc4c3=O)cc2F)ccn1 | 29.4 | 3.87 | 39.3 | 
10 | COc1ccc(-n2cc(C(=O)Nc3ccc(Oc4ccnc(C(=O)N5CCCC5)c4)cc3)c(=O)c3cccnc32)cc1 | 57 | 33.6 | 62.1 | 
11 | CCCNC(=O)c1cc(Oc2ccc(NC(=O)c3cn(-c4ccc(Br)cc4)c4ncccc4c3=O)cc2F)ccn1 | 35.9 | 8.01 | 10.4 | 
12 | CCCNC(=O)c1cc(Oc2ccc(NC(=O)c3cn(-c4ccc(F)cc4)c4ncccc4c3=O)cc2F)ccn1 | 23.8 | 19.3 | 40.7 | 
13 | CCCNC(=O)c1cc(Oc2ccc(NC(=O)c3cn(-c4ccccc4)c4ncccc4c3=O)cc2F)ccn1 | 75 | 67.2 | 74 | 
14 | CCCNC(=O)c1cc(Oc2ccc(NC(=O)c3cn(-c4ccc(Br)cc4)c4ncccc4c3=O)cc2)ccn1 | 65.9 |  | 73.9 | IC50 (A549 [3]): Not Active
15 | COc1ccc(-n2cc(C(=O)Nc3ccc(Oc4ccnc(C(=O)NCCCN5CCOCC5)c4)c(F)c3)c(=O)c3cccnc32)cc1 | 17.4 | 19.3 | 30.8 | 
16 | O=C(Nc1ccc(Oc2ccnc(C(=O)N3CCCC3)c2)cc1)c1cn(-c2ccccc2)c2ncccc2c1=O | 41.2 | 47.6 | 38.1 | 
17 | O=C(Nc1ccc(Oc2ccnc(C(=O)N3CCCC3)c2)cc1)c1cn(-c2ccc(Br)cc2)c2ncccc2c1=O | 75.5 |  | 62.1 | IC50 (A549 [3]): Not Active
18 | COc1ccc(-n2cc(C(=O)Nc3ccc(Oc4ccnc(C(=O)N5CCCC5)c4)c(F)c3)c(=O)c3cccnc32)cc1 |  |  | 77 | IC50 (HeLa; hela): Not Active; IC50 (A549 [3]): Not Active
19 | CCCNC(=O)c1cc(Oc2ccc(NC(=O)c3cn(-c4ccc(OC)cc4)c4ncccc4c3=O)cc2F)ccn1 | 67.5 | 51.1 | 71.3 | 
20 | O=C(Nc1ccc(Oc2ccnc(C(=O)N3CCCC3)c2)c(F)c1)c1cn(-c2ccc(Br)cc2)c2ncccc2c1=O | 42.3 |  | 44.3 | IC50 (A549 [3]): Not Active
21 | CCCNC(=O)c1cc(Oc2ccc(NC(=O)c3cn(-c4ccc(Br)cc4F)c4ncccc4c3=O)cc2F)ccn1 | 41.8 | 18.7 | 17.3 | 
22 | O=C(NCCCN1CCOCC1)c1cc(Oc2ccc(NC(=O)c3cn(-c4ccc(F)c(Cl)c4)c4ncccc4c3=O)cc2)ccn1 | 39 | 7.88 | 43 | 
23 | CCCNC(=O)c1cc(Oc2ccc(NC(=O)c3cn(-c4ccc(Cl)cc4)c4ncccc4c3=O)cc2F)ccn1 | 65.3 | 45.1 | 52.9 | 

The remaining molecules from weak to strong by IC50 (HeLa; [12]), led by results:

Row | IC50 (HeLa; [12]) [µM] | IC50 (A549 [1]) [µM] | IC50 (MCF7 [2]) [µM] | Structure (SMILES) | further results
24 | 9.76 | 0.74 | 11 | O=C(NCCCN1CCOCC1)c1cc(Oc2ccc(NC(=O)c3cn(-c4ccc(Br)cc4)c4ncccc4c3=O)cc2)ccn1 | 
25 | 7.96 | 9.27 | 0.83 | O=C(NCCCN1CCOCC1)c1cc(Oc2ccc(NC(=O)c3cn(-c4ccc(Br)cc4F)c4ncccc4c3=O)cc2)ccn1 | 
26 | 7.92 | 4.18 | 5.75 | O=C(NCCCN1CCOCC1)c1cc(Oc2ccc(NC(=O)c3cn(-c4ccc(F)cc4)c4ncccc4c3=O)cc2)ccn1 | 
27 | 7.02 | 9.57 | 23.7 | O=C(NCCCN1CCOCC1)c1cc(Oc2ccc(NC(=O)c3cn(-c4ccccc4)c4ncccc4c3=O)cc2F)ccn1 | 
28 | 5.28 | 3.47 | 15 | O=C(Nc1ccc(Oc2ccnc(C(=O)N3CCCC3)c2)cc1)c1cn(-c2ccc(F)cc2)c2ncccc2c1=O | 
29 | 4.57 | 2.91 | 4.87 | O=C(NCCCN1CCOCC1)c1cc(Oc2ccc(NC(=O)c3cn(-c4ccc(Br)cc4)c4ncccc4c3=O)cc2F)ccn1 | 
30 | 2.13 | 1.62 | 2.98 | O=C(Nc1ccc(Oc2ccnc(C(=O)N3CCCC3)c2)c(F)c1)c1cn(-c2ccc(F)cc2)c2ncccc2c1=O | 
31 | 2.01 | 0.96 | 2.86 | CCCNC(=O)c1cc(Oc2ccc(NC(=O)c3cn(-c4ccc(OC)cc4)c4ncccc4c3=O)cc2)ccn1 | 
32 | 1.85 | 1.18 | 3.51 | O=C(NCCCN1CCOCC1)c1cc(Oc2ccc(NC(=O)c3cn(-c4ccc(Br)cc4F)c4ncccc4c3=O)cc2F)ccn1 | 
33 | 1.57 | 0.58 | 4.96 | O=C(NCCCN1CCOCC1)c1cc(Oc2ccc(NC(=O)c3cn(-c4ccc(F)cc4)c4ncccc4c3=O)cc2F)ccn1 | 
34 | 1.28 | 0.98 | 2.96 | O=C(Nc1ccc(Oc2ccnc(C(=O)N3CCCC3)c2)c(F)c1)c1cn(-c2ccc(F)c(Cl)c2)c2ncccc2c1=O | 
35 | 1.17 | 0.62 | 3.15 | COc1cc2nccc(Oc3ccc(NC(=O)C4(C(=O)Nc5ccc(F)cc5)CC4)cc3)c2cc1OC [CABOZANTINIB] | viability at 5 µM (A549 [5]): 88.2%; Activity (A549 [6]): 2.33%; Activity (A549 [7]): 4.25%; Activity (A549 [8]): 5.19%; Activity (A549 [9]): 56.19%; Activity (A549 [10]): 11.66%; Activity (A549 [11]): 32.15%
36 | 1.09 | 0.89 | 3.01 | CCCNC(=O)c1cc(Oc2ccc(NC(=O)c3cn(-c4ccc(F)cc4)c4ncccc4c3=O)cc2)ccn1 | 
